From patent US20240245783A1, “METALLO-BETA-LACTAMASE INHIBITOR” (priority 2021, published 2024)

Experiments:
[1] = test system: multidrug-resistant Pseudomonas aeruginosa; test: Growth suppression of multidrug-resistant Pseudomonas aeruginosa clinical isolates (Test Example 7); type: cell-based; conditions: MEPM 2 μg/ml alone, compound 8 20 μM (15.5 μg/ml) alone, Combination = both, 3 wells
Procedure: The effect of NODA-GA-conjugated doripenem (compound 8) on the susceptibility of a Pseudomonas aeruginosa clinical isolate to a carbapenem antibacterial agent was evaluated by the following method. The Pseudomonas aeruginosa clinical isolate was cultured overnight with shaking in LB medium. The bacterial solution was diluted to 1/1000 with LB medium, used as a test bacterial solution, and then seeded in a 96-well plate. Meropenem (Wako Pure Chemical Industries, Ltd.) was added to this bacterial solution in such a manner that the concentration was 2 μg/ml. The effect of NODA-GA-doripenem alone was also examined. The bacteria were cultured in an incubator at 37° C. for one day, and the growth at that time was measured by turbidity (655 nm).
MEPM in Table 1 is meropenem (2 μg/ml) administered alone; NODA-GA-doripenem is compound 8 (20 μM; 15.5 μg/ml) administered alone; Combination means a combined use of meropenem (2 μg/ml) and compound 8 (20 μM; 15.5 μg/ml).

[2] = test system: Multidrug-resistant Pseudomonas aeruginosa strain MR4; test: Growth inhibition of Pseudomonas aeruginosa strain MR4 (Test Example 8); type: cell-based; conditions: after 24 hours, compared with doripenem
Procedure: Multidrug-resistant Pseudomonas aeruginosa strain MR4 was cultured with doripenem or compound 8, and the bacterial load was assessed by turbidity after 24 hours. FIG. 18 depicts the results.

C[C@@H](O)[C@H]1C(=O)N2C(C(=O)O)=C(S[C@@H]3CN[C@H](CNS(=O)(=O)NC(=O)CCC(C(=O)O)N4CCN(CC(=O)O)CCN(CC(=O)O)CC4)C3)[C@H](C)[C@H]12 (stereo partly drawn) [compound 8, NODA-GA-conjugated doripenem]
suppression of bacterial growth ([1]; strain 808#1): X (x indicates that the number of wells in which suppression of bacterial growth was confirmed was 1 or less)
suppression of bacterial growth ([1]; strain 808#2): X (x indicates that the number of wells in which suppression of bacterial growth was confirmed was 1 or less)
suppression of bacterial growth ([1]; strain MR1): ◯ (◯ indicates that bacterial growth was suppressed in all 3 wells)
suppression of bacterial growth ([1]; strain MR2): ◯ (◯ indicates that bacterial growth was suppressed in all 3 wells)
suppression of bacterial growth ([1]; strain MR3): Δ (Δ indicates that bacterial growth was suppressed in 2 wells out of 3 wells)
suppression of bacterial growth ([1]; strain MR4): Δ (Δ indicates that bacterial growth was suppressed in 2 wells out of 3 wells)
suppression of bacterial growth ([1]; strain MR5): ◯ (◯ indicates that bacterial growth was suppressed in all 3 wells)
suppression of bacterial growth ([1]; strain MR6): Δ (Δ indicates that bacterial growth was suppressed in 2 wells out of 3 wells)
suppression of bacterial growth ([1]; strain MR7): ◯ (◯ indicates that bacterial growth was suppressed in all 3 wells)
suppression of bacterial growth ([1]; strain MR8): X (x indicates that the number of wells in which suppression of bacterial growth was confirmed was 1 or less)
suppression of bacterial growth ([1]; strain MR9): ◯ (◯ indicates that bacterial growth was suppressed in all 3 wells)
suppression of bacterial growth ([1]; strain MR10): Δ (Δ indicates that bacterial growth was suppressed in 2 wells out of 3 wells)
suppression of bacterial growth ([1]; strain MR11): X (x indicates that the number of wells in which suppression of bacterial growth was confirmed was 1 or less)
suppression of bacterial growth ([1]; strain MR12): X (x indicates that the number of wells in which suppression of bacterial growth was confirmed was 1 or less)
suppression of bacterial growth ([1]; strain MR13): X (x indicates that the number of wells in which suppression of bacterial growth was confirmed was 1 or less)
suppression of bacterial growth ([1]; strain MR14): Δ (Δ indicates that bacterial growth was suppressed in 2 wells out of 3 wells)
suppression of bacterial growth ([1]; strain MR15): ◯ (◯ indicates that bacterial growth was suppressed in all 3 wells)
suppression of bacterial growth ([1]; strain MR16): X (x indicates that the number of wells in which suppression of bacterial growth was confirmed was 1 or less)
suppression of bacterial growth ([1]; strain NM1): Δ (Δ indicates that bacterial growth was suppressed in 2 wells out of 3 wells)
suppression of bacterial growth ([1]; strain NM2): Δ (Δ indicates that bacterial growth was suppressed in 2 wells out of 3 wells)
suppression of bacterial growth ([1]; strain NM3): ◯ (◯ indicates that bacterial growth was suppressed in all 3 wells)
suppression of bacterial growth ([1]; strain NM4): ◯ (◯ indicates that bacterial growth was suppressed in all 3 wells)
suppression of bacterial growth ([1]; strain NM5): X (x indicates that the number of wells in which suppression of bacterial growth was confirmed was 1 or less)
anti-Pseudomonas aeruginosa effect (bacterial load by turbidity) [2]: significantly improved compared to that of doripenem
